From US12365650B2, “Deuterated organic compounds and uses thereof” (ENGRAIL THERAPEUTICS, INC., priority 2023, dated 2025)
Marks after values point to notes of the source that are not given here.

Assays:
5-HT2A receptor [1] = molecular target: T1, 5-HT2A receptor (Homo sapiens, UniProt P28223); format: binding
5-HT2A receptor [2] = molecular target: T1, 5-HT2A receptor; assay: IP-One HTRF functional assay, 5-HT2A agonist mode; format: cell-based; parameters: expressed in transfected cells; settings: % of reference agonist activity at its EC100
Procedure: (§1) Example 4—Agonist or Antagonist Activity on Recombinant Human Dopamine and Serotonin Receptors Using IPOne HTRF and cAMP HTRF Assays
(§2) IP-One and cAMP HTRF assays are conducted with recombinant cell lines.
(§3) Agonist activity of test compounds is expressed as a percentage of the activity of the reference agonist at its EC100 concentration. Antagonist activity of the test compound is expressed as a percentage of the inhibition of reference agonist activity at its EC80 concentration.

human 5-HT1A receptor = molecular target: T2, human 5-HT1A receptor (Homo sapiens, UniProt P08908); assay: cAMP HTRF functional assay, 5-HT1A agonist mode; format: cell-based; settings: for 5-HT1A functional character: agonist mode, summary of Tables 4-5; for Top % Activation at maximal concentration, 5-HT1A (agonist mode): cAMP, % of reference agonist activity at its EC100
T2 sequence (P08908 1-422): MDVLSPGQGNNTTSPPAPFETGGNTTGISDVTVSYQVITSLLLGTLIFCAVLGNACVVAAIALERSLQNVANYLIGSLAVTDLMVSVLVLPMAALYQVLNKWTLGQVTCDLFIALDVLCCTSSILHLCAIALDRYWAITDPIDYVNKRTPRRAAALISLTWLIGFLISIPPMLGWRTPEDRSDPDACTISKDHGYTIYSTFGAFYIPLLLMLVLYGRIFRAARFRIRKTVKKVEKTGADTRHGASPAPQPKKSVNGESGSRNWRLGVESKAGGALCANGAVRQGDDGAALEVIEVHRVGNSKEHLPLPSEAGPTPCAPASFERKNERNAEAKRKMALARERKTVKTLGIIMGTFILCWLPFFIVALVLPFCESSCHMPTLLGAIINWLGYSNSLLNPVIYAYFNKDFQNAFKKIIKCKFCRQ
Procedure: as §1, §2, §3

T1 sequence (P28223 whole entry): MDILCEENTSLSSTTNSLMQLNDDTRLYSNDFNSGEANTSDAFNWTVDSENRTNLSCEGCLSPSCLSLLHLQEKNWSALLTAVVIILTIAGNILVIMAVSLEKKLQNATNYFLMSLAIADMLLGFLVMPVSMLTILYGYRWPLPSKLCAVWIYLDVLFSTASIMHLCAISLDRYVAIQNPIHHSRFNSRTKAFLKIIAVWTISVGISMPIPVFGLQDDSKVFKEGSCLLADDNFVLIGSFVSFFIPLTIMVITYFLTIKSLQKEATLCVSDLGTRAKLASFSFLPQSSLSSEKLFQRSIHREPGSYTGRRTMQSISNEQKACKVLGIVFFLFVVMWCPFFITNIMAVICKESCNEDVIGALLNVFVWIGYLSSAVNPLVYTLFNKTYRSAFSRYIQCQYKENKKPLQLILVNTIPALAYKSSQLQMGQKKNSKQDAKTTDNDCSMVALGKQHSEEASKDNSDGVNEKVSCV

| SMILES | binding to the 5-HT2A receptor in vitro (5-HT2A receptor [1]) | Top % Activation at maximal concentration, 5-HT2A (agonist mode) (5-HT2A receptor [2]) | 5-HT1A functional character (human 5-HT1A receptor) | Top % Activation at maximal concentration, 5-HT1A (agonist mode) (human 5-HT1A receptor) |
| --- | --- | --- | --- | --- |
| CCN1CCC[C@H]1CNC(=O)c1c(OC)ccc(Br)c1OC [S-remoxipride] | do not even bind |  |  |  |
| [2H]c1c([2H])c([2H])c(CN2CC[C@@H](NC(=O)c3cc(Cl)c(NC)cc3OC)[C@H]2C)c([2H])c1[2H] [Ex. 1 (10), 5-Chloro-N-((2R,3R)-1-((pentadeuterophenyl)methyl)-2-methylpyrrolidin-3-yl)-2-methoxy-4-(methylamino)benzamide] |  | 84^d % | strong 5-HT1A agonist | 71^d % |
| CCN1CCC[C@@H]1CNC(=O)c1c(OC)ccc(Br)c1OC [R-remoxipride] | do not even bind |  |  |  |
| [2H]C([2H])([2H])Oc1cc(NC)c(Cl)cc1C(=O)N[C@@H]1CCN(Cc2ccccc2)[C@@H]1C [Ex. 2 (18), 5-Chloro-N-((2R,3R)-1-((phenyl)methyl)-2-methylpyrrolidin-3-yl)-2-trideuteromethoxy-4-(methylamino)benzamide] |  | 94% | 5-HT1A partial agonist | 59% |
